Test results reported in patent publication US8497240B2 (priority 2006, dated 2013).
Read-outs that look alike come from different tables or passages of the source. Ends that are not written are not given here.

Tests used:
human GIP receptor = biological target: T1, human GIP receptor (Homo sapiens, UniProt P48546); test: biochemical; type: binding
T1 construct: expressed in transfected cells; host or cells: HEK293 (HEK-GIPR), membranes
T1 sequence (P48546 22-466): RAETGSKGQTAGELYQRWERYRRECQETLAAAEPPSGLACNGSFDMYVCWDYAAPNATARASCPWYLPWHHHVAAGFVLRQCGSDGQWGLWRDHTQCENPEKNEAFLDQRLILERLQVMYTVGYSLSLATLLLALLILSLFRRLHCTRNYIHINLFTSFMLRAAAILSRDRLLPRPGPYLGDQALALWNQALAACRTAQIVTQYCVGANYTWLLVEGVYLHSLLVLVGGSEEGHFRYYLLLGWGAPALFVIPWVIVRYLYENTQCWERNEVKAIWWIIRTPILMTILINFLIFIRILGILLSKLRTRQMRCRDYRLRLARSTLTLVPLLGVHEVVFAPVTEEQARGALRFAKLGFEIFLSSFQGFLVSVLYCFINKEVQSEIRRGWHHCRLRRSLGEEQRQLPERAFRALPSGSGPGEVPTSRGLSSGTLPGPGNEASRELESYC

[1] = type: in vivo, NIH/Swiss mice; details: 30 nmol/kg
Method: In FIG. 3A, bars represent mean±sd, n=6-10. […] Gavage (1.5 g/kg) was given at t=0, Sample was taken at t=30 min. […] In FIG. 3B, points represent mean±sem, n=8-15.
Peptide was injected IP at t=−5 minutes into 4-hour fasted NIH/Swiss female mice. […] In FIG. 17 points represent mean+/−sem. […] Samples were taken at t=60, t=120 and t=180.

[2] = read-out: (% Inh 10 nm, GIP-LF Assay)
[3] = read-out: GIP RBA (% Inh 10 nM)

Molecule	inhibition at 0.01 µM (human GIP receptor; [2]) [%]	inhibition at 0.01 µM (human GIP receptor; [3]) [%]	OGTT/GL (%) [1]
CC[C@H](C)[C@H](NC(=O)[C@H](CO)NC(=O)[C@H](Cc1ccc(O)cc1)NC(=O)[C@H](CC(=O)O)NC(=O)[C@H](CO)NC(=O)[C@@H](NC(=O)[C@H](Cc1ccccc1)NC(=O)[C@@H](NC(=O)CNC(=O)[C@H](CCC(=O)O)NC(=O)CNC(=O)[C@@H](N)Cc1c[nH]cn1)[C@@H](C)O)[C@@H](C)CC)C(=O)N[C@@H](C)C(=O)N[C@@H](CCSC)C(=O)N[C@@H](CC(=O)O)C(=O)N[C@@H](CCCCN)C(=O)N[C@H](C(=O)N[C@@H](Cc1c[nH]cn1)C(=O)N[C@@H](CCC(N)=O)C(=O)N[C@@H](CCC(N)=O)C(=O)N[C@@H](CC(=O)O)C(=O)N[C@@H](Cc1ccccc1)C(=O)N[C@H](C(=O)N[C@@H](CC(N)=O)C(=O)N[C@@H](Cc1c[nH]c2ccccc12)C(=O)N[C@@H](CC(C)C)C(=O)N[C@@H](CC(C)C)C(=O)N[C@@H](C)C(=O)N[C@@H](CCC(N)=O)C(=O)N[C@@H](CCCCN)C(=O)N1CCC[C@H]1C(=O)N[C@@H](CCCCN)C(=O)N[C@@H](CCCCN)C(=O)N[C@H](C(=O)N[C@@H](CCCNC(=N)N)C(=O)N[C@@H](Cc1ccc(O)cc1)C(=O)N[C@@H](CO)C(N)=O)[C@@H](C)CC)C(C)C)[C@@H](C)CC [Compound 0601GIP4839]	23.9		
CC[C@H](C)[C@H](NC(=O)[C@H](CO)NC(=O)[C@H](Cc1ccc(O)cc1)NC(=O)[C@H](CC(=O)O)NC(=O)[C@H](CO)NC(=O)[C@@H](NC(=O)[C@H](Cc1ccccc1)NC(=O)[C@@H](NC(=O)CNC(=O)[C@H](CCC(=O)O)NC(=O)[C@H](CO)NC(=O)[C@@H](N)Cc1ccc(O)cc1)[C@@H](C)O)[C@@H](C)CC)C(=O)N[C@@H](C)C(=O)N[C@@H](CCSC)C(=O)N[C@@H](CC(=O)O)C(=O)N[C@@H](CCCCN)C(=O)N[C@H](C(=O)N[C@@H](Cc1c[nH]cn1)C(=O)N[C@@H](CCC(N)=O)C(=O)N[C@@H](CCC(N)=O)C(=O)N[C@@H](CC(=O)O)C(=O)N[C@@H](Cc1ccccc1)C(=O)N[C@H](C(=O)N[C@@H](CC(N)=O)C(=O)N[C@@H](Cc1c[nH]c2ccccc12)C(=O)N[C@@H](CC(C)C)C(=O)N[C@@H](CC(C)C)C(=O)N[C@@H](C)C(=O)N[C@@H](CCC(N)=O)C(=O)N[C@@H](CCCCN)C(=O)N1CCC[C@H]1C(=O)N[C@@H](CCCCN)C(=O)N[C@@H](CCCCN)C(=O)N[C@H](C(=O)N[C@@H](CCCNC(=N)N)C(=O)N[C@@H](Cc1ccc(O)cc1)C(=O)N[C@@H](CO)C(N)=O)[C@@H](C)CC)C(C)C)[C@@H](C)CC [0601GIP4538]		94.2	−9, 30%
CC[C@H](C)[C@H](NC(=O)[C@H](CCCCN)NC(=O)[C@H](CC(=O)O)NC(=O)[C@H](CC(C)C)NC(=O)[C@H](C)NC(=O)[C@@H](NC(=O)[C@H](CO)NC(=O)[C@H](Cc1ccc(O)cc1)NC(=O)[C@H](CC(=O)O)NC(=O)[C@H](CO)NC(=O)[C@@H](NC(=O)[C@H](Cc1ccccc1)NC(=O)[C@@H](NC(=O)CNC(=O)[C@H](CCC(=O)O)NC(=O)CNC(=O)[C@@H](N)Cc1c[nH]cn1)[C@@H](C)O)[C@@H](C)CC)[C@@H](C)CC)C(=O)N[C@@H](C)C(=O)N[C@@H](CCC(N)=O)C(=O)N[C@@H](CCC(N)=O)C(=O)N[C@@H](CCC(=O)O)C(=O)N[C@@H](Cc1ccccc1)C(=O)N[C@H](C(=O)N[C@@H](CC(N)=O)C(=O)N[C@@H](Cc1c[nH]c2ccccc12)C(=O)N[C@@H](CC(C)C)C(=O)N[C@@H](CC(C)C)C(=O)N[C@@H](C)C(=O)N[C@@H](CCC(N)=O)C(=O)N[C@@H](CCCCN)C(=O)N1CCC[C@H]1C(=O)N[C@@H](CCCCN)C(=O)N[C@@H](CCCCN)C(=O)N[C@H](C(=O)N[C@@H](CCCNC(=N)N)C(=O)N[C@@H](Cc1ccc(O)cc1)C(=O)N[C@@H](CO)C(N)=O)[C@@H](C)CC)C(C)C [Compound 0601GIP4841]	56.6		
HGEGTLISDYSIAMDKIHQQDFVNWLLAQKPKKIRYS-NH2 [Compound 0601GIP4843]	3		
CC[C@H](C)[C@H](NC(=O)CNC(=O)[C@H](CCCCN)NC(=O)[C@H](Cc1c[nH]c2ccccc12)NC(=O)[C@H](CC(C)C)NC(=O)[C@@H](NC(=O)[C@H](Cc1ccccc1)NC(=O)CNC(=O)[C@H](CCCCN)NC(=O)[C@H](CCC(N)=O)NC(=O)[C@H](C)NC(=O)[C@H](CC(C)C)NC(=O)[C@H](CC(C)C)NC(=O)[C@H](Cc1c[nH]c2ccccc12)NC(=O)[C@H](CC(N)=O)NC(=O)[C@@H](NC(=O)[C@H](Cc1ccccc1)NC(=O)[C@H](CC(=O)O)NC(=O)[C@H](CCC(N)=O)NC(=O)[C@H](CCC(N)=O)NC(=O)[C@H](Cc1c[nH]cn1)NC(=O)[C@@H](NC(=O)[C@H](CCCCN)NC(=O)[C@H](CC(=O)O)NC(=O)[C@H](CCSC)NC(=O)[C@H](C)NC(=O)[C@@H](NC(=O)[C@H](CO)NC(=O)[C@H](Cc1ccc(O)cc1)NC(=O)[C@H](CC(=O)O)NC(=O)[C@H](CO)NC(=O)[C@@H](NC(=O)[C@H](Cc1ccccc1)NC(=O)[C@@H](NC(=O)CNC(=O)[C@H](CCC(=O)O)NC(=O)[C@@H](C)NC(=O)[C@@H](N)Cc1ccc(O)cc1)[C@@H](C)O)[C@@H](C)CC)[C@@H](C)CC)[C@@H](C)CC)C(C)C)C(C)C)C(=O)N[C@@H](CCC(N)=O)C(N)=O [Compound 0601GIP4619]		84.6	
HGEGTFISDYSIALDKIRQQEFVNWLLAQKPKKIRYS-NH2 [Compound 0601GIP4842]	40.8		
CC[C@H](C)[C@H](NC(=O)[C@H](CCCCN)NC(=O)[C@H](CC(=O)O)NC(=O)[C@H](CC(C)C)NC(=O)[C@H](C)NC(=O)[C@@H](NC(=O)[C@H](CO)NC(=O)[C@H](Cc1ccc(O)cc1)NC(=O)[C@H](CC(=O)O)NC(=O)[C@H](CO)NC(=O)[C@@H](NC(=O)[C@H](Cc1ccccc1)NC(=O)[C@@H](NC(=O)CNC(=O)[C@H](CCC(=O)O)NC(=O)[C@H](C)NC(=O)[C@H](Cc1ccc(O)cc1)NC(=O)[C@@H](N)CC(C)C)[C@@H](C)O)[C@@H](C)CC)[C@@H](C)CC)C(=O)N[C@@H](C)C(=O)N[C@@H](CCC(N)=O)C(=O)N[C@@H](CCC(N)=O)C(=O)N[C@@H](CCC(=O)O)C(=O)N[C@@H](Cc1ccccc1)C(=O)N[C@H](C(=O)N[C@@H](CC(N)=O)C(=O)N[C@@H](Cc1c[nH]c2ccccc12)C(=O)N[C@@H](CC(C)C)C(=O)N[C@@H](CC(C)C)C(=O)N[C@@H](C)C(=O)N[C@@H](CCC(N)=O)C(=O)N[C@@H](CCCCN)C(=O)N1CCC[C@H]1C(=O)N[C@@H](CCCCN)C(=O)N[C@@H](CCCCN)C(=O)N[C@H](C(=O)N[C@@H](CCCNC(=N)N)C(=O)N[C@@H](Cc1ccc(O)cc1)C(=O)N[C@@H](CO)C(N)=O)[C@@H](C)CC)C(C)C [0601GIP4803]	89.9	89.9	−16, %
